Where two headings read alike, the source gives them in different places.
What was measured:
human TGR5 (h-TGR5) = biological target: T1, human TGR5 (h-TGR5) (Homo sapiens, UniProt Q8TDU6); assay: TGR5/CRE-Luciferiase Assay (HEK 293 hTGR5/CRE-Luc cells); format: cell-based
T1 construct: expressed in transfected cells
T1 sequence (Q8TDU6 1-330): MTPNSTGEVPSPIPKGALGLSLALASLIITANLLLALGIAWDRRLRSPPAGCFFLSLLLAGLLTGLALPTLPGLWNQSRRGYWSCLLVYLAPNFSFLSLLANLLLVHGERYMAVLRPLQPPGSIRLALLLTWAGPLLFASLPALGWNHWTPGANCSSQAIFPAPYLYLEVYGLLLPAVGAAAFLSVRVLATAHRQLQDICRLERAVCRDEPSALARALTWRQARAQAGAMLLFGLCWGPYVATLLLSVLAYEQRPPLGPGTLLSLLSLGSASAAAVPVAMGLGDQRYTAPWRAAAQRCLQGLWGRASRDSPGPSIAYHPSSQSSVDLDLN
Summary of the method: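 HEK293 cells stably carrying hTGR5 and a CRE-luciferase reporter were exposed to serially diluted compounds (diluted in DMEM with 5% DMSO) for 6 h. Cells were then lysed in luciferase buffer, luminescence was read, and EC50 values were derived from dose-response curves.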

h-TGR5 = biological target: T2, h-TGR5 (Homo sapiens, UniProt Q8TDU6); assay: TGR5 cAMP Assay using Cisbio cAMP Dynamic2 htrf kit (hTGR5CRE-luc HEK 293 cells); format: cell-based
T2 construct: expressed in transfected cells
T2 sequence (Q8TDU6 1-330): T1 sequence (Q8TDU6 1-330)
Summary of the method: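 […], 4000 hTGR5CRE-luc HEK 293 cells per well, with 0.5 mM IBMX and d2-cAMP, were incubated 30 min at room temperature with compounds in 8-point half-log series, in quadruplicate.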

[1] = h-TGR5 CRE-Luc EC50, Table 1, read-out: CRE-Luc (EC50)
[2] = h-TGR5 cAMP EC50, Table 1, read-out: cAMP (EC50)

## CC(C)(c1ccc(Cl)c(Cl)c1)c1nnc(SCc2c(F)cc(C(=O)O)cc2F)n1-c1ccc(F)cc1 [Example 48]
Human TGR5 (h-TGR5); HEK 293 hTGR5/CRE-Luc cells, 6 hours incubation, luciferase activity, Table 2, read-out: h-TGR5CRE-Luc EC50 (CRE-Luc)
  EC50: 100 to 1000 nM
h-TGR5; hTGR5CRE-luc HEK 293 cells, htrf cAMP, Table 2, read-out: h-TGR5 cAMP EC50 (cAMP)
  EC50: 100 to 1000 nM

## CC(C)(c1ccc(Cl)cc1F)c1cnc(SCc2c(F)cccc2Cl)n1-c1ccc(F)cc1 [5-[1-(4-chloro-2-fluorophenyl)-1-methylethyl]-2-{[(2-chloro-6-fluorophenyl)methyl]thio}-1-(4-fluorophenyl)-1H-imidazole]
Human TGR5 (h-TGR5); [1]
  EC50: 100 to 1000 nM
h-TGR5; [2]
  EC50: 100 to 1000 nM

## COc1cc(-n2c(C(C)(C)c3ccc(S(N)(=O)=O)c(Cl)c3)cnc2SCc2ccc(Cl)c(-c3nnn[nH]3)c2)ccc1F [2-chloro-4-(1-{2-({[4-chloro-3-(1H-tetrazol-5-yl)phenyl]methyl}thio)-1-[4-fluoro-3-(methyloxy)phenyl]-1H-imidazol-5-yl}-1-methylethyl)benzenesulfonamide]
Human TGR5 (h-TGR5); [1]
  EC50: 100 to 1000 nM
h-TGR5; [2]
  EC50: 100 to 1000 nM

## CC(C)(c1ccc(Cl)c(Cl)c1)c1cnc(CCc2c(F)cccc2Cl)n1-c1ccc(F)cc1 [2-[2-(2-chloro-6-fluorophenyl)ethyl]-5-[1-(3,4-dichlorophenyl)-1-methylethyl]-1-(4-fluorophenyl)-1H-imidazole]
Human TGR5 (h-TGR5); [1]
  EC50: 100 to 1000 nM
h-TGR5; [2]
  EC50: 100 to 1000 nM

## CC(C)(c1ccc(F)c(F)c1)c1cnc(SCc2cc(C(=O)O)ccc2Cl)n1-c1ccc(F)cc1 [4-chloro-3-[({5-[1-(3,4-difluorophenyl)-1-methylethyl]-1-(4-fluorophenyl)-1H-imidazol-2-yl}thio)methyl]benzoic acid]
Human TGR5 (h-TGR5); [1]
  EC50: 100 to 1000 nM
h-TGR5; [2]
  EC50: 100 to 1000 nM

## CC(C)(c1ccc(F)c(F)c1)c1cnc(SCC2CCN(S(C)(=O)=O)CC2)n1-c1ccc(F)cc1 [4-[({5-[1-(3,4-difluorophenyl)-1-methylethyl]-1-(4-fluorophenyl)-1H-imidazol-2-yl}thio)methyl]-1-(methylsulfonyl)piperidine]
Human TGR5 (h-TGR5); [1]
  EC50: < 100 nM
h-TGR5; [2]
  EC50: 100 to 1000 nM

## COc1ccc(Cc2cnc(SCc3ccc(F)cc3Cl)n2-c2ccc(F)cc2)cc1OC [5-{[3,4-bis(methyloxy)phenyl]methyl}-2-{[(2-chloro-4-fluorophenyl)methyl]thio}-1-(4-fluorophenyl)-1H-imidazole]
Human TGR5 (h-TGR5); [1]
  EC50: < 100 nM
h-TGR5; [2]
  EC50: < 100 nM

## COc1cc(-n2c(C(C)(C)c3ccc(S(N)(=O)=O)c(Cl)c3)cnc2SCc2c(F)cc(C(=O)NC(CCCNC(=N)N)C(=O)O)cc2Cl)ccc1F [N-2-[(4-{[(5-{1-[4-(aminosulfonyl)-3-chlorophenyl]-1-methylethyl}-1-[4-fluoro-3-(methyloxy)phenyl]-1H-imidazol-2-yl)thio]methyl}-3-chloro-5-fluorophenyl)carbonyl]-D-arginine]
Human TGR5 (h-TGR5); [1]
  EC50: < 100 nM
h-TGR5; [2]
  EC50: < 100 nM

## COc1cc(C(C)(C)c2cnc(SCc3c(F)cc(S(N)(=O)=O)cc3F)n2-c2ccc(F)cc2)ccc1Cl [4-({[5-{1-[4-chloro-3-(methyloxy)phenyl]-1-methylethyl}-1-(4-fluorophenyl)-1H-imidazol-2-yl]thio}methyl)-3,5-difluorobenzenesulfonamide]
Human TGR5 (h-TGR5); [1]
  EC50: < 100 nM
h-TGR5; [2]
  EC50: < 100 nM

## CC(C)(c1ccc(F)c(Cl)c1)c1cnc(SCc2c(F)cccc2Cl)n1-c1ccc(F)cc1 [5-[1-(3-chloro-4-fluorophenyl)-1-methylethyl]-2-{[(2-chloro-6-fluorophenyl)methyl]thio}-1-(4-fluorophenyl)-1H-imidazole]
Human TGR5 (h-TGR5); [1]
  EC50: < 100 nM
h-TGR5; [2]
  EC50: 100 to 1000 nM

## CC(C)(c1ccc(F)c(F)c1)c1cnc(SCc2ccc(S(=O)(=O)NC(=O)NN3CCCC3)cc2Cl)n1-c1ccc(F)c(F)c1 [3-chloro-4-[({1-(3,4-difluorophenyl)-5-[1-(3,4-difluorophenyl)-1-methylethyl]-1H-imidazol-2-yl}thio)methyl]-N-[(pyrrolidin-1-ylamino)carbonyl]benzenesulfonamide]
Human TGR5 (h-TGR5); [1]
  EC50: 100 to 1000 nM
h-TGR5; [2]
  EC50: 1000 to 10000 nM

## COc1cc(C(C)(C)c2cnc(SCc3ccc(S(=O)(=O)NC(=O)NN4CCCC4)cc3Cl)n2-c2ccc(F)c(C)c2)ccc1Cl [3-chloro-4-({[5-{1-[4-chloro-3-(methyloxy)phenyl]-1-methylethyl}-1-(4-fluoro-3-methylphenyl)-1H-imidazol-2-yl]thio}methyl)-N-[(pyrrolidin-1-ylamino)carbonyl]benzenesulfonamide]
Human TGR5 (h-TGR5); [1]
  EC50: < 100 nM
h-TGR5; [2]
  EC50: 100 to 1000 nM

## CC(C)(c1ccc(Cl)c(Cl)c1)c1cnc(SCc2c(F)cccc2Cl)n1-c1ccc(F)cc1 [2-{[(2-chloro-6-fluorophenyl)methyl]thio}-5-[1-(3,4-dichlorophenyl)-1-methylethyl]-1-(4-fluorophenyl)-1H-imidazole]
Human TGR5 (h-TGR5); [1]
  EC50: < 100 nM
h-TGR5; [2]
  EC50: 100 to 1000 nM

## COc1cc(-n2c(C(C)(C)c3ccc(Cl)c(OC)c3)cnc2SCc2ccc(S(=O)(=O)NC(=O)NN3CCCC3)cc2Cl)ccc1F [3-chloro-4-{[(5-{1-[4-chloro-3-(methyloxy)phenyl]-1-methylethyl}-1-[4-fluoro-3-(methyloxy)phenyl]-1H-imidazol-2-yl)thio]methyl}-N-[(pyrrolidin-1-ylamino)carbonyl]benzenesulfonamide]
Human TGR5 (h-TGR5); [1]
  EC50: < 100 nM
h-TGR5; [2]
  EC50: < 100 nM

## COc1cc(C(C)(C)c2cnc(SCc3c(F)cc(OCCNC(=N)NC(=N)N)cc3F)n2-c2ccc(F)cc2)ccc1Cl [N-(2-{[4-({[5-{1-[4-chloro-3-(methyloxy)phenyl]-1-methylethyl}-1-(4-fluorophenyl)-1H-imidazol-2-yl]thio}methyl)-3,5-difluorophenyl]oxy}ethyl)imido dicarbonimidic diamide]
Human TGR5 (h-TGR5); [1]
  EC50: < 100 nM
h-TGR5; [2]
  EC50: < 100 nM

## COc1cc(C(C)(C)c2cnc(SCc3c(F)cc(C(=O)O)cc3Cl)n2-c2ccc(F)cn2)ccc1Cl [3-chloro-4-({[5-{1-[4-chloro-3-(methyloxy)phenyl]-1-methylethyl}-1-(5-fluoropyridin-2-yl)-1H-imidazol-2-yl]thio}methyl)-5-fluorobenzoic acid]
Human TGR5 (h-TGR5); [1]
  EC50: < 100 nM
h-TGR5; [2]
  EC50: < 100 nM

## CC(C)(c1ccc(Cl)c(Cl)c1)c1cnc(SCc2ccc(S(=O)(=O)NC(=O)NN3CCCC3)cc2Cl)n1-c1ccc(F)cc1 [3-chloro-4-[({5-[1-(3,4-dichlorophenyl)-1-methylethyl]-1-(4-fluorophenyl)-1H-imidazol-2-yl}thio)methyl]-N-[(pyrrolidin-1-ylamino)carbonyl]benzenesulfonamide]
Human TGR5 (h-TGR5); [1]
  EC50: 100 to 1000 nM
h-TGR5; [2]
  EC50: 1000 to 10000 nM

## CC(C)(c1ccc(S(N)(=O)=O)c(Cl)c1)c1cnc(SCc2ccc(S(=O)(=O)NC(=O)NN3CCOCC3)cc2Cl)n1-c1ccc(F)c(F)c1 [4-({[5-{1-[4-(aminosulfonyl)-3-chlorophenyl]-1-methylethyl}-1-(3,4-difluorophenyl)-1H-imidazol-2-yl]thio}methyl)-3-chloro-N-[(morpholin-4-ylamino)carbonyl]benzenesulfonamide]
Human TGR5 (h-TGR5); [1]
  EC50: 100 to 1000 nM
h-TGR5; [2]
  EC50: 100 to 1000 nM

## COc1cc(C(C)(C)c2cnc(SCc3ccc(C(=O)NCCS(=O)(=O)O)cc3F)n2-c2ccc(F)cc2)ccc1Cl [2-({[4-({[5-{1-[4-chloro-3-(methyloxy)phenyl]-1-methylethyl}-1-(4-fluorophenyl)-1H-imidazol-2-yl]thio}methyl)-3-fluorophenyl]carbonyl}amino)ethanesulfonic acid]
Human TGR5 (h-TGR5); [1]
  EC50: < 100 nM
h-TGR5; [2]
  EC50: < 100 nM

## COc1ccc(C(C)(C)c2cnc(SCc3c(Cl)cccc3Cl)n2-c2ccc(F)cc2)cc1OC [5-{1-[3,4-bis(methyloxy)phenyl]-1-methylethyl}-2-{[(2,6-dichlorophenyl)methyl]thio}-1-(4-fluorophenyl)-1H-imidazole]
Human TGR5 (h-TGR5); [1]
  EC50: < 100 nM
h-TGR5; [2]
  EC50: < 100 nM

## COc1cc(C(C)(C)c2cnc(SCc3ccc(S(=O)(=O)NC(=O)NN4CCCC4)cc3F)n2-c2ccc(F)cc2)ccc1Cl [4-({[5-{1-[4-chloro-3-(methyloxy)phenyl]-1-methylethyl}-1-(4-fluorophenyl)-1H-imidazol-2-yl]thio}methyl)-3-fluoro-N-[(pyrrolidin-1-ylamino)carbonyl]benzenesulfonamide]
Human TGR5 (h-TGR5); [1]
  EC50: < 100 nM
h-TGR5; [2]
  EC50: 100 to 1000 nM

## CC(C)(c1ccc(F)c(F)c1)c1cnc(SCc2ccc(S(=O)(=O)NC(=O)NN3CCCC3)cc2Cl)n1-c1ccc(F)cc1 [3-chloro-4-[({5-[1-(3,4-difluorophenyl)-1-methylethyl]-1-(4-fluorophenyl)-1H-imidazol-2-yl}thio)methyl]-N-[(pyrrolidin-1-ylamino)carbonyl]benzenesulfonamide]
Human TGR5 (h-TGR5); [1]
  EC50: 100 to 1000 nM
h-TGR5; [2]
  EC50: 1000 to 10000 nM

## COc1cc(C(C)(C)c2cnc(SCc3c(F)cccc3Cl)n2-c2ccc(F)cc2)ccc1Cl [2-{[(2-chloro-6-fluorophenyl)methyl]thio}-5-{1-[4-chloro-3-(methyloxy)phenyl]-1-methylethyl}-1-(4-fluorophenyl)-1H-imidazole]
Human TGR5 (h-TGR5); [1]
  EC50: < 100 nM
h-TGR5; [2]
  EC50: < 100 nM

## CC(C)(c1ccc(Cl)c(Cl)c1)c1cnc(SCC2CCN(S(C)(=O)=O)C2)n1-c1ccc(F)cc1 (stereo not drawn) [5-[1-(3,4-dichlorophenyl)-1-methylethyl]-1-(4-fluorophenyl)-2-({[1-(methylsulfonyl)pyrrolidin-3-yl]methyl}thio)-1H-imidazole]
Human TGR5 (h-TGR5); [1]
  EC50: 100 to 1000 nM
h-TGR5; [2]
  EC50: 100 to 1000 nM

Reference: patent publication US8785488B2 (Exelixis Patent Company LLC, priority 2009, dated 2014)
